# According to patent publication US9278991B2, “Anhydrous polymorphs of [(2R,3S,4R,5R)-5-(6-(cyclopentylamino)-9H-purin-9-yl)-3,4-dihydroxytetrahydrofuran-2-yl)} methyl nitrate and processes of preparation thereof” (Inotek Pharmaceuticals Corporation, priority 2012, dated 2016):
# Assays:
# Assay type in all cases: physicochemical
# [1] = Storage of aqueous suspension ocular formulation containing Compound A in the A1 polymorph at 2-8° C
# Description: When the aqueous suspension ocular formulation containing Compound A in the A1 polymorph is stored at 2-8° C., a temperature required to limit decomposition of Compound A over long term storage, the habit of the suspended particles changes slowly over a period of 6 to 12 months. During this time the small irregular particles of suspended drug change to rod-like habits, with many particles having a length along the longest dimension over 100 microns.
# [2] = Long term stability and particle size growth of cured (A2) aqueous formulation lots at 5 and 25 degrees Celsius; settings: aqueous suspension, 6 month period at either 5° C. or 25° C.
# Description: (§1) The particle size analyses were performed on a Cilas 1180 Particle Size Analyzer. The parameters used were liquid mode, sample refractive index=1.62 (determined using Cargille immersion oils), liquid refractive index=1.333 (value for water), 30 second measurement, 180 rpm stifling, 120 rpm pump circulation, no sonication, 5 repeat measurements.
# A batch of sterile material of Compound A was prepared as described above under the “Synthesis of Compound A”. The resulting Compound A material was then sterilized with gamma irradiation at up to 40 kGray and then formulated into the following aqueous formulations: […]
# Various concentrations of Compound A formulation lots were prepared from 0.152, 0.30, 0.61, 0.91, 2.42, 0.46, 0.76%, W/V to provide for the ability to deliver different levels of Compound A per drop of formulation. For example one drop of the 0.152%, W/V of compound A would deliver 50 mcg per drop, 0.30%, W/V would deliver 100 mcg per drop, right through to 0.76% W/V delivering 250 mcg per drop. The formulation lots were then heated to undergo the curing step and convert the A1 polymorph form of Compound A to the A2 polymorph form of Compound A. The curing step was undertaken by placing the formulation lots at 40 degrees C. for 48 hours and then reverting the formulations lots to the desired longer term storage conditions for stability studies. […]
# [3] = Curing (ripening) of Compound A aqueous suspension at 40 degrees C: conversion of form A1 to A2, followed by particle size, XRPD and microphotography
# Description: XRPD patterns were obtained using a high-throughput XRPD set-up. The plates were mounted on a Bruker GADDS diffractometer equipped with a Hi-Star area detector. The XRPD platform was calibrated using Silver Behenate for the long d-spacings and Corundum for the short d-spacings.
# Data collection was carried out at room temperature using monochromatic CuKα radiation in the 2-theta region between 1.5 degrees and 41.5 degrees, which is the most distinctive part of the XRPD pattern between the polymorph forms. The diffraction pattern of each well was collected in 2 theta ranges (1.5 degrees≦2 theta≦21.5 degrees for the first frame, and 19.5 degrees≦2 theta≦41.5 degrees for the second) with an exposure time of 30 seconds for each frame. No background subtraction or curve smoothing was applied to the XRPD patterns. The carrier material used during XRPD analysis was transparent to X-rays and contributed only slightly to the background.
# As described above the Form A1 can be obtained predominantly via recrystallization from ethanol or under slow evaporation conditions. It has also been established that ripening or curing of Compound A particles suspended in an aqueous suspension formulated for ocular delivery at 40 degrees C. for a relatively short period of time formed polymorph form A2 from polymorph form A1. The aqueous suspension samples were kept at 40 degrees C. for up to 108 hours and monitored by particle size measurement, XRPD and microphotography. […] XRPD analyses indicated a change in polymorph content from about 74% A1 to 26% A2 at time zero to 0% A1 to 100% A2 at 108 hours at 40 degrees C. […] Also, habit changes coupled with A2 growth were reflected in the XRPD patterns and could be monitored by a difference in selected peak intensities from planes within the crystal lattice perpendicular to the c axis that change in intensity as the habit of the crystal changes.
# as §1
structure (smiles),measurement,setting,value
O=[N+]([O-])OC[C@H]1O[C@@H](n2cnc3c(NC4CCCC4)ncnc32)[C@H](O)[C@@H]1O [Form A1],resuspendability by sonication and shaking,[1]; aqueous suspension after habit change at 2-8° C,much more difficult to resuspend
same,particle length along the longest dimension (many particles),"[1]; aqueous suspension stored at 2-8° C, 6 to 12 months",over 100 microns
O=[N+]([O-])OC[C@H]1O[C@@H](n2cnc3c(NC4CCCC4)ncnc32)[C@H](O)[C@@H]1O [Form A2],"changes to particle habit, size or polymorph content on storage",[2],limit any further changes
"O=[N+]([O-])OC[C@H]1O[C@@H](n2cnc3c(NC4CCCC4)ncnc32)[C@H](O)[C@@H]1O [Compound A, [2R,3S,4R,5R)-5-(6-(cyclopentylamino)-9H-purin-9-yl)-3,4-dihydroxytetrahydrofuran-2-yl)] methyl nitrate]",average particle size change,"[3]; 40 degrees C, after 15 hours to 108 hours",remained effectively constant
same,time over which XRPD peak intensity differences (crystal habit) changed,"[3]; 40 degrees C, constant thereafter",up to 9 hours
same,average particle size change,"[3]; 40 degrees C, over 15 hours",increased significantly
same,polymorph content A1 (XRPD),[3]; 108 hours at 40 degrees C,0%
same,polymorph content A2 (XRPD),[3]; 108 hours at 40 degrees C,100%
same,polymorph content A1 (XRPD),[3]; time zero,about 74%
same,polymorph content A2 (XRPD),[3]; time zero,~26%
